Measured values as given in patent publication US9447100B2, “Substituted pyrazolo[1,5-A] pyrimidines as calcium receptor modulating agents” (Takeda Pharmaceutical Company Limited, priority 2002, dated 2016).

Row | SMILES | melting point [°C]
1 | O=C(NC1(C(=O)O)CCCCC1)c1cnn2c1N[C@H](c1ccccc1)C[C@@H]2C(F)(F)F (stereo in doubt) [Example 369, 1-(((5-phenyl-7-(trifluoromethyl)-4,5,6,7-tetrahydropyrazolo[1,5-a]pyrimidin-3-yl)carbonyl)amino)cyclohexane carboxylic acid] | 236 to 237
2 | O=C(NC1(C(=O)Nc2ccccc2)CCCCC1)c1cnn2c1N[C@H](c1ccccc1)C[C@@H]2C(F)(F)F (stereo in doubt) [Example 371, N-(1-(anilinocarbonyl)cyclohexyl)-5-phenyl-7-(trifluoromethyl)-4,5,6,7-tetrahydropyrazolo[1,5-a]pyrimidine-3-carboxamide] | 262 to 263
3 | O=C(On1nnc2ccccc21)c1cnn2c1N[C@H](c1ccccc1)C[C@@H]2C(F)(F)F (stereo in doubt) [Example 372, 1-(((5-phenyl-7-(trifluoromethyl)-4,5,6,7-tetrahydropyrazolo[1,5-a]pyrimidin-3-yl)carbonyl)oxy)-1H-1,2,3-benzotriazole] | 216 to 217
4 | O=C(c1cnn2c1N[C@H](c1ccccc1)C[C@@H]2C(F)(F)F)N(C1CCCCC1)C1CCCCC1 (stereo in doubt) [Example 373, N,N-dicyclohexyl-5-phenyl-7-(trifluoromethyl)-4,5,6,7-tetrahydropyrazolo[1,5-a]pyrimidine-3-carboxamide] | 243 to 244
5 | NC(=O)c1cnn2c1N[C@H](c1ccccc1)C[C@@H]2C(F)(F)F (stereo in doubt) [Example 403, 5-phenyl-7-(trifluoromethyl)-4,5,6,7-tetrahydropyrazolo[1,5-a]pyrimidine-3-carboxamide] | 277 to 278
6 | CCOC(=O)c1cnn2c1NC(c1ccc3ccccc3c1)CC2C(F)(F)F (centres unmarked) [Example 2, ethyl 5-(2-naphthyl)-7-(trifluoromethyl)-4,5,6,7-tetrahydropyrazolo[1,5-a]pyrimidine-3-carboxylate] | 120 to 122
7 | CCOC(=O)c1cnn2c1NC(c1ccc(OC)cc1)CC2C(F)(F)F (centres unmarked) [Example 3, ethyl 5-(4-methoxyphenyl)-7-(trifluoromethyl)-4,5,6,7-tetrahydropyrazolo[1,5-a]pyrimidine-3-carboxylate] | 105 to 109
8 | CCOC(=O)c1cnn2c1NC(c1ccco1)CC2C(F)(F)F (centres unmarked) [Example 14, ethyl 5-(2-furyl)-7-(trifluoromethyl)-4,5,6,7-tetrahydropyrazolo[1,5-a]pyrimidine-3-carboxylate] | 86
9 | O=C(O)c1cnn2c1NC(c1ccc3ccccc3c1)CC2C(F)(F)F (centres unmarked) [Example 22, 5-(2-naphthyl)-7-(trifluoromethyl)-4,5,6,7-tetrahydropyrazolo[1,5-a]pyrimidine-3-carboxylic acid] | 143 to 145
10 | COc1ccc(C2CC(C(F)(F)F)n3ncc(C(=O)O)c3N2)cc1 (centres unmarked) [Example 25, 5-(4-methoxyphenyl)-7-(trifluoromethyl)-4,5,6,7-tetrahydropyrazolo[1,5-a]pyrimidine-3-carboxylic acid] | 154 to 155
11 | O=C(O)c1cnn2c1NC(c1ccc(Cl)cc1)CC2C(F)(F)F (centres unmarked) [Example 26, 5-(4-chlorophenyl)-7-(trifluoromethyl)-4,5,6,7-tetrahydropyrazolo[1,5-a]pyrimidine-3-carboxylic acid] | 186 to 187
12 | CC1CC(c2ccccc2)Nc2c(C(=O)O)cnn21 (centres unmarked) [Example 27, 7-methyl-5-phenyl-4,5,6,7-tetrahydropyrazolo[1,5-a]pyrimidine-3-carboxylic acid] | 165 to 167
13 | CCc1ccc(C2CC(C(F)(F)F)n3ncc(C(=O)O)c3N2)cc1 (centres unmarked) [Example 28, 5-(4-ethylphenyl)-7-(trifluoromethyl)-4,5,6,7-tetrahydropyrazolo[1,5-a]pyrimidine-3-carboxylic acid] | 165 to 168
14 | O=C(O)c1cnn2c1NC(c1ccco1)CC2C(F)(F)F (centres unmarked) [Example 29, 5-(2-furyl)-7-(trifluoromethyl)-4,5,6,7-tetrahydropyrazolo[1,5-a]pyrimidine-3-carboxylic acid] | 156 to 157
